Calls of active or inactive are those of the source.
How the values were obtained:
[1] = biological target: T1, Caspase-3 (Homo sapiens, UniProt P42574); type: functional;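 also: Dose-response selectivity test against caspase-3 for candidate inhibitors of sentrin-specific proteases (SENPs)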
T1 sequence (P42574 whole entry): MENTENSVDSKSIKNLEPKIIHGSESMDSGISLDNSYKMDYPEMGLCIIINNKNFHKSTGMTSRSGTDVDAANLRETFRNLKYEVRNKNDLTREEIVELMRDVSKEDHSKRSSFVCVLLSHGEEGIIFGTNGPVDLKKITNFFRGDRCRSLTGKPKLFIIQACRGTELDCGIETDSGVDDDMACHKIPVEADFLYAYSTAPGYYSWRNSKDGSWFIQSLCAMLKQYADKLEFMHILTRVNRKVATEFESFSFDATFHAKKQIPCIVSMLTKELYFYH

[2] = biological target: T2, Sentrin-specific protease 7 (Homo sapiens, UniProt Q9BQF6); type: functional;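 also: Luminescence-based dose-response confirmation of ultra-high-throughput screening hits, measuring inhibition of SENP7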
T2 sequence (Q9BQF6 whole entry): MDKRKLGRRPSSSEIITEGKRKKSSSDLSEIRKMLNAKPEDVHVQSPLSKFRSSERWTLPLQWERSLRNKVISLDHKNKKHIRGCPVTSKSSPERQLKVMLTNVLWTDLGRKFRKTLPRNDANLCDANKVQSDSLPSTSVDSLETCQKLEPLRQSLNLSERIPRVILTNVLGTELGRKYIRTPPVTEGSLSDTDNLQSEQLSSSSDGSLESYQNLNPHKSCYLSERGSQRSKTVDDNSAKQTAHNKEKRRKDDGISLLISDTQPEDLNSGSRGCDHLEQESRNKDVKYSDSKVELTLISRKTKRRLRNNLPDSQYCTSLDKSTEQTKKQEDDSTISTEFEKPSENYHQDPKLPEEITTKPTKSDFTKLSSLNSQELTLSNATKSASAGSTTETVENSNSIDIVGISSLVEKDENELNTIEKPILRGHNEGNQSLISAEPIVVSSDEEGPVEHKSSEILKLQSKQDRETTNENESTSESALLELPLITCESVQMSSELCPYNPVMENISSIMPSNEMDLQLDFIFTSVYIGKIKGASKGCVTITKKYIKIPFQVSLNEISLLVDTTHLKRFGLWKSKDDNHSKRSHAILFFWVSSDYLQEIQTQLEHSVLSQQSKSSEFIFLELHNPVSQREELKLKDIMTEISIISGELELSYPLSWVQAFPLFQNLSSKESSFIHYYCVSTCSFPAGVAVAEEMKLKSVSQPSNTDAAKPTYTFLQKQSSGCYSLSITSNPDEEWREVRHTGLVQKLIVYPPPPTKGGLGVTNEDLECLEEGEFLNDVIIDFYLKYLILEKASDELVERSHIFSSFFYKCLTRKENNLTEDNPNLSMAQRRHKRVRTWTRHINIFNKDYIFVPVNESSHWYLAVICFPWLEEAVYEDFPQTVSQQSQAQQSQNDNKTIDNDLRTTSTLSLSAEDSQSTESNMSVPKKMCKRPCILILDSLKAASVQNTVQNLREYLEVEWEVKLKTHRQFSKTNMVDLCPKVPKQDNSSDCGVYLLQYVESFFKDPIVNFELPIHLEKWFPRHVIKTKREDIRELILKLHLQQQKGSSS

[3] = biological target: T3, Sentrin-specific protease 6 (Homo sapiens, UniProt Q9GZR1); type: functional;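 also: Luminescence-based dose-response confirmatory assay of SENP6 inhibition, following up an ultra-high-throughput screen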
T3 sequence (Q9GZR1 whole entry): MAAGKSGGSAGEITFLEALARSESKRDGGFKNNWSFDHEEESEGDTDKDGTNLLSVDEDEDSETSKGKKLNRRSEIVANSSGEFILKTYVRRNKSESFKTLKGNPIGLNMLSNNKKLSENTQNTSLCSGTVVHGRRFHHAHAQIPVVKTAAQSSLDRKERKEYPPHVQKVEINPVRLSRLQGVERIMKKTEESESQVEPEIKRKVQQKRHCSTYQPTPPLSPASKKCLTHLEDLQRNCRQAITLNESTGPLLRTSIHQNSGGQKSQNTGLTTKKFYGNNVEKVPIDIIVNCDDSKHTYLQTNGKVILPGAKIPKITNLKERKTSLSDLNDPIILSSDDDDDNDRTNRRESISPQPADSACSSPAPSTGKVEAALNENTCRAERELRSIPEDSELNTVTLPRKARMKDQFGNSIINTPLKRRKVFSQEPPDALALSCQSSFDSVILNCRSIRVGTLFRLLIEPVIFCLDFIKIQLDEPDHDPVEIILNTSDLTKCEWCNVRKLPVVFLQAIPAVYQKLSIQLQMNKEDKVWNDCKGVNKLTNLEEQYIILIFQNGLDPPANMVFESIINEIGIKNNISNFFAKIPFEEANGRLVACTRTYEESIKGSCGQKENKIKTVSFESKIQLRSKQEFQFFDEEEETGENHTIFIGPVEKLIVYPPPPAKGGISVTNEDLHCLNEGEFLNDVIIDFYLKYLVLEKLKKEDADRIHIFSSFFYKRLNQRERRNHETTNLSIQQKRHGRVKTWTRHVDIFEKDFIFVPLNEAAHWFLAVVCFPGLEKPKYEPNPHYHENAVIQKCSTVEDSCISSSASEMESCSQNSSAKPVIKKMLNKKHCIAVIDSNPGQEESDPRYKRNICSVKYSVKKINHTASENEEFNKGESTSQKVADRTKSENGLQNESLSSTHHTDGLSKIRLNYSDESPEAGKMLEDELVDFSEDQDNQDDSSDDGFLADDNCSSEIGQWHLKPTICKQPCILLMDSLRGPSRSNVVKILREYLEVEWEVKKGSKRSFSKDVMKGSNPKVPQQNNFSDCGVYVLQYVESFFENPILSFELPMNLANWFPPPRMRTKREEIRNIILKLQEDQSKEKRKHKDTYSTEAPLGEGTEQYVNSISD

[4] = biological target: T4, Sentrin-specific protease 8 (Homo sapiens, UniProt Q96LD8); type: functional;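 also: luminescence read-out of SENP8 inhibition, dose-response confirmation following an ultra-high-throughput screen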
T4 sequence (Q96LD8 whole entry): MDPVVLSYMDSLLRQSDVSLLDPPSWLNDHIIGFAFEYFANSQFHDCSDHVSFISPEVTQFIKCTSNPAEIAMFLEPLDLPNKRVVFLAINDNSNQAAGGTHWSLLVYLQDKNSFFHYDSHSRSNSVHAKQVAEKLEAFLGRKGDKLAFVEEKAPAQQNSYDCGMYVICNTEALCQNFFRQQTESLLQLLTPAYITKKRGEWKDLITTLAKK

[5] = biological target: Cytochrome P450 2C9 (Homo sapiens, UniProt P11712)
Chain of Cytochrome P450 2C9 (P11712 whole entry): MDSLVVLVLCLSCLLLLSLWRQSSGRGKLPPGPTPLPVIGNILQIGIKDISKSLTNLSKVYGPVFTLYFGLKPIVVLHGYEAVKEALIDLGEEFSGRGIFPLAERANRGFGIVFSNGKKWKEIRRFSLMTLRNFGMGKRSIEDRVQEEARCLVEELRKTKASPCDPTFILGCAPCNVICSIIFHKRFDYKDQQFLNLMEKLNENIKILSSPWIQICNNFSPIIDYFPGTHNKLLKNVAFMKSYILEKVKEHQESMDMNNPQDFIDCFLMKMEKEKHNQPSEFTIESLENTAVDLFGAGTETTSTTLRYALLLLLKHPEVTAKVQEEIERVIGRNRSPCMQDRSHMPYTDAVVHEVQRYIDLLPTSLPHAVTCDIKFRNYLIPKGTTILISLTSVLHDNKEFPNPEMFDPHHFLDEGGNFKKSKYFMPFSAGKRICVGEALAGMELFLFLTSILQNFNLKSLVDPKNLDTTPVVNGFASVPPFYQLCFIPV

[6] = biological target: T5, Low molecular weight phosphotyrosine protein phosphatase (Homo sapiens, UniProt P24666); type: functional; details: read-out: IC50_Mean;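 also: Dose-response confirmation assay measuring inhibition of LMPTP enzyme activity by fluorescence intensity read-out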
T5 sequence (P24666 whole entry): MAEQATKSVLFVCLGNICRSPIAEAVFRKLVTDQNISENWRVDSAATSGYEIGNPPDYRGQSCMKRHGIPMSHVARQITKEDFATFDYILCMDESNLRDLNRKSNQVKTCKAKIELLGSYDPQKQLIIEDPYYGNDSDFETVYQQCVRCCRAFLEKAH

[7] = system: Escherichia coli; assay: microbe, parasite or virus in culture
[8] = biological target: T6, Cytochrome P450 1A2 (Homo sapiens, UniProt P05177);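 also: PubChem cytochrome P450 panel assay, CYP1A2 panel member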
T6 sequence (P05177 whole entry): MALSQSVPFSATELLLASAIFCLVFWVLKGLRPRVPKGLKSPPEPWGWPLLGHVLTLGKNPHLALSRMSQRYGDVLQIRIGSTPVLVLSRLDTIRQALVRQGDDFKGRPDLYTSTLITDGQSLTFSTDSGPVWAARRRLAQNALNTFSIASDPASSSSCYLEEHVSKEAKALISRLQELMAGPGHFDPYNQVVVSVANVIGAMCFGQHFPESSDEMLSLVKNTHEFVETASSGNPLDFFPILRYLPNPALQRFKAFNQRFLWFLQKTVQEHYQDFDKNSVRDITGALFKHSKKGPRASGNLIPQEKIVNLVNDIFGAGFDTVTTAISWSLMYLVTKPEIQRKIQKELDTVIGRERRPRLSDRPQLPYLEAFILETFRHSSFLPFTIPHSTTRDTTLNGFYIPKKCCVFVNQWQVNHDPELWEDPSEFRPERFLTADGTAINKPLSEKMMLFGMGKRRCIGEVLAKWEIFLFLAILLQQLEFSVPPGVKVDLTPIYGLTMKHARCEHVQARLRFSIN

[9] = biological target: Cytochrome P450 3A4 (Homo sapiens, UniProt P08684);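 also: CYP3A4 tested as one member of a cytochrome P450 panel screen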
Chain of Cytochrome P450 3A4 (P08684 whole entry): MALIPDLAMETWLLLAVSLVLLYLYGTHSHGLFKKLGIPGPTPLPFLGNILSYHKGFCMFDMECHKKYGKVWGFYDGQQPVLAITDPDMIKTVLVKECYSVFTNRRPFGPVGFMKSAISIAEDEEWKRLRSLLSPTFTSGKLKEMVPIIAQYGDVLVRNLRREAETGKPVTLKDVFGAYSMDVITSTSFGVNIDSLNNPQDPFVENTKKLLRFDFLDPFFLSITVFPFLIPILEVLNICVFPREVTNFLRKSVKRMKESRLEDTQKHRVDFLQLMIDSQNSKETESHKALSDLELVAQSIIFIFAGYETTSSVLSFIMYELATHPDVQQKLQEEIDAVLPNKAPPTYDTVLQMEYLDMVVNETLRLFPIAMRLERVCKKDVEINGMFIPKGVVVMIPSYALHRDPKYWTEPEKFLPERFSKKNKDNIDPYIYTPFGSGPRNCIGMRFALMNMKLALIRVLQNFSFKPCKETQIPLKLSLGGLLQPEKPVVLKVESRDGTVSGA

[10] = decrease of insulin promoter-GFP reporter – imaging, high-content screening, mouse beta cells (AID 1628); type: functional; details: MIN6
[11] = system: Streptococcus sp. 'group A'; assay: Streptococcus pyogenes SK(-)GAS viability under kanamycin – luminescence, BacTiterGlo, confirmation, counter-screen for streptokinase expression inhibitor project, dose response (AID 1900); type: functional, organism-based
[12] = MIN6 cell viability loss – mouse insulinoma, cytotoxicity control, dose response (AID 2122); type: functional;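 also: confirmatory high-throughput counterscreen run to flag cytotoxic compounds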
[13] = biological target: T7, Streptokinase A (Streptococcus pyogenes serotype M1, UniProt P10520); assay: viability-normalized secreted streptokinase activity reduction – plasminogen activation absorbance, OD405, dose response (AID 1914); type: functional, Streptococcus pyogenes M1 GAS;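 also: secreted streptokinase activity via plasminogen activation per viability signal from cell pellet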
T7 sequence (P10520 whole entry): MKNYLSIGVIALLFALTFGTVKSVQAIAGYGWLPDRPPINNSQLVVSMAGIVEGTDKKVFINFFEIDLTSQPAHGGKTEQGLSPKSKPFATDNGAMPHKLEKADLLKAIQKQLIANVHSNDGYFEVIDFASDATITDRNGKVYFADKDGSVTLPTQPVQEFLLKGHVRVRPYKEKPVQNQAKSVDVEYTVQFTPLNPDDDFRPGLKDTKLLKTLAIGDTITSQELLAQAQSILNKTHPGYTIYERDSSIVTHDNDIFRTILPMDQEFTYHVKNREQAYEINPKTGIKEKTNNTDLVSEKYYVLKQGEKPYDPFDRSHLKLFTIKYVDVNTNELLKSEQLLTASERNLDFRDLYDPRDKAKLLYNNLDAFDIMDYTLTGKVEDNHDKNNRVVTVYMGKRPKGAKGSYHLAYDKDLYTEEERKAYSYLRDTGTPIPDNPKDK

[14] = system: Streptococcus; assay: GAS UMAA2166 growth inhibition – luminescence, BacTiterGlo, counter-screen for streptokinase expression inhibitor project, dose response (AID 1915); type: functional, organism-based;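 also: potency for reduction of bacterial viability or growth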
[15] = system: INS1; assay: INS-1E survival protection against cytokine death – cell-based, luminescence, retest, dose response (AID 449756); type: functional; details: Rattus norvegicus;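 also: cell death triggered by IL-1 beta plus TNF-alpha plus IFN-gamma mixture; protective hits raise ATP signal compared with cytokine alone wells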
[16] = system: Vero; assay: cells; type: functional; details: Chlorocebus sabaeus
[17] = reduction of Shn3 3'UTR-driven luciferase in osteoblasts – cell-based, Clone20 osteoblasts, firefly luciferase, cherry-picked, dose response (AID 624132); type: functional;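 also: firefly luciferase luminescence from reporter carrying the Shn3 3'UTR in osteoblasts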
[18] = loss of viability in HepG2 cells – cell-based, CellTiter-Glo, cherry-picked, cytotoxicity control for Shn3 inhibitor project, dose response (AID 624134); type: functional
[19] = non-specific 3'UTR reporter inhibition in Clone20-Shn3RL – cell-based, Renilla luciferase, cherry-picked, counter-screen for Shn3 inhibitor project, dose response (AID 624133); type: functional
[20] = viability of uninfected HEp-2 cells – cell-based, HTS, cytotoxicity control for RSV inhibitor project, dose response (AID 2410); type: functional; details: human respiratory syncytial virus
[21] = system: Vero; assay: cells; type: functional, cell-based; details: Chlorocebus sabaeus
[22] = cells
[23] = biological target: Cytochrome P450 2D6 (Homo sapiens, UniProt P10635);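 also: CYP2D6 member of a cytochrome P450 panel assay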
Chain of Cytochrome P450 2D6 (P10635 whole entry): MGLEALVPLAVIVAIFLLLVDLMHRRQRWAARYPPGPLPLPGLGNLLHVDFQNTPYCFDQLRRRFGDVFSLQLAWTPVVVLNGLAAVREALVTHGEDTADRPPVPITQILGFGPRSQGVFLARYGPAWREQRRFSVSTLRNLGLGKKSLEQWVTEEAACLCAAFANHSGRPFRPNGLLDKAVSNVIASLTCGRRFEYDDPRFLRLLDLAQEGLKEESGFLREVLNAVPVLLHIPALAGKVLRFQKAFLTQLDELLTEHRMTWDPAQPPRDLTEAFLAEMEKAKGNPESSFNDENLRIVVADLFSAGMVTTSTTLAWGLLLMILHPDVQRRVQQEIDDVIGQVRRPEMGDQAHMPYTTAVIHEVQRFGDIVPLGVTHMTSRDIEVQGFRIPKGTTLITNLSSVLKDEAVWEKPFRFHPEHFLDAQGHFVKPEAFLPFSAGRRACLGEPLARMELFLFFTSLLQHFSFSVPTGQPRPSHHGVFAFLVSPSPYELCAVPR

[24] = biological target: T8, CAAX prenyl protease 2 (Homo sapiens, UniProt Q9Y256); assay: inhibition of Ras-converting CAAX protease Rce1 – biochemical, yeast membranes, quenched-peptide fluorescence, cherry-pick, dose response (AID 588849)
T8 sequence (Q9Y256 whole entry): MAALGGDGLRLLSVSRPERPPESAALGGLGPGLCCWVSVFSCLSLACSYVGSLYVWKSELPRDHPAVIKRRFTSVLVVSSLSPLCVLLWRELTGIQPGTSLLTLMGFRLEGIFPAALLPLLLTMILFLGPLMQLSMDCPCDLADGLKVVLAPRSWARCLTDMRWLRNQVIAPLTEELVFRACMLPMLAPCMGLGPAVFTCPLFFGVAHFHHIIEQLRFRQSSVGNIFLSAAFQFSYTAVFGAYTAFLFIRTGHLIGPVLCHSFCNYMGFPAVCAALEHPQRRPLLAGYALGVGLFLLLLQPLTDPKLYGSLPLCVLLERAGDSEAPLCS

NC(=O)c1ccc(-c2ncc(-c3ccccc3)o2)cc1
IC50 [1]: 13.1 µM (active) | IC50 [2]: 6.11 µM (active) | IC50 [3]: 33.9 µM (active) | IC50 [4]: 51.7 µM (active) | AC50 [5]: 2.51 µM (inconclusive)

CCn1cc(C(=O)O)c(=O)c2cc(F)c(N3CCN(C(=S)NC(=O)c4ccc(OC)cc4)CC3)cc21
IC50 [6]: 7.26 µM (active) | AC50 [7]: 8.97 µM (active)

O=C(c1cnccn1)N1CCC2(CC1)CCN(C(c1ccccc1)c1ccccc1)CC2
AC50 [8]: 10 µM (inconclusive) | AC50 [9]: inconclusive

Cn1cccc1C(=O)N1CCC2(CCN(Cc3nccs3)CC2)CC1
AC50 [9]: inconclusive

Cc1ccn(C(=O)c2ccc(NC(=O)C3CC3)cc2)n1
AC50 [7]: 22.3 µM (active)

O=C(COC(=O)c1ccc([N+](=O)[O-])s1)NCc1ccccc1
IC50 [1]: 23.4 µM (active) | IC50 [2]: 19.1 µM (active) | IC50 [3]: 12.8 µM (active) | IC50 [4]: 12.9 µM (active)

CCn1cnc2sc(-c3ccccc3)cc2c1=O
IC50 [1]: 12.5 µM (active) | IC50 [2]: 9.66 µM (active) | IC50 [3]: 32.2 µM (active) | IC50 [4]: 43.8 µM (active)

CC1=NN(c2nc3ccccc3[nH]2)C(=O)C1Cc1ccccc1 (centres undefined)
IC50 [10]: 1.53 µM (active) | EC50 [11]: 1.17 µM (active) | IC50 [12]: 1.43 µM (active) | EC50 [13]: > 150 µM (not active) | EC50 [14]: > 150 µM (not active) | AC50 [15]: 1.43 µM (active) | CC50 [16]: 2.92 µM (active) | AC50 [17]: 4.11 µM (active) | AC50 [18]: > 70 µM (inactive) | AC50 [19]: 2.6 µM (active)

Cc1cccc(NC(=O)CSc2nc3ccccc3nc2N2CCCCC2)c1
CC50 [20]: 10.3 µM (active) | IC50 [21]: 9.16 µM (active) | CC50 [16]: > 25 µM (active) | IC50 [22]: 9 µM (active)

O=C(Oc1ccccc1)N1CCC2(CCN(Cc3ccccc3)CC2)CC1
AC50 [23]: 39.8 µM (inconclusive) | AC50 [9]: inconclusive

CC(=O)/C(C#N)=C1\NC(=O)C(Cc2ccccc2)S1 (centres undefined)
CC50 [20]: 14.4 µM (active) | IC50 [21]: 9.17 µM (active) | IC50 [22]: 5.09 µM (active)

COC(C/C=C/[C@@H](O)[C@H](C)OCc1ccccc1)OC
AC50 [24]: 16.5 µM (active)

— ChEMBL document CHEMBL1201862, “PubChem BioAssay data set” (2004)
